Data taken from patent US20160251403A1, “PEPTIDE COMBINATIONS AND USES THEREOF IN TREATING DUST MITE ALLERGY” (ALK-ABELLO A/S, priority 2013, published 2016).
Residue numbers refer to the chain shown, from its start. No end group written: not given here.

Experiments:
DPA10103-DPB10401 = target: T1, DPA10103-DPB10401 (Homo sapiens, UniProt P04440+P20036); assay: Competitive MHC class II binding assay, DPA10103-DPB10401
T1 sequence (P20036 29-260): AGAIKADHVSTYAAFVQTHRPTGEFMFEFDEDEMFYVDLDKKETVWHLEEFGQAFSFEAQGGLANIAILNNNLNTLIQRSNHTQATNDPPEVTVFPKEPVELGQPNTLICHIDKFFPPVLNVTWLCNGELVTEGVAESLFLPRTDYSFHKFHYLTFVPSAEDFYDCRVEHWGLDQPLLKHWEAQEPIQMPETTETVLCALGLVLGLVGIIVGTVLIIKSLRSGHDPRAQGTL
T1 sequence (P04440 30-258): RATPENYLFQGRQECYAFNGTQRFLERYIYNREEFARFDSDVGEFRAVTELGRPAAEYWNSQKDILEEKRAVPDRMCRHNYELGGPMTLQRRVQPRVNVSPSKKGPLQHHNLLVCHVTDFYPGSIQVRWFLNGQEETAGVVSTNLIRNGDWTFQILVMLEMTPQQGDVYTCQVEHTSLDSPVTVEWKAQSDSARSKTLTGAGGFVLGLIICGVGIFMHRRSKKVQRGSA

DPA10103-DPB10201 = target: T2, DPA10103-DPB10201 (Homo sapiens, UniProt P04440+P20036, A65V/A84D/A85E/K98E); assay: Competitive MHC class II binding assay, DPA10103-DPB10201
T2 sequence (P20036 29-260): T1 sequence (P20036 29-260)
T2 sequence (P04440 30-258 A65V/A84D/A85E/K98E): T1 sequence (P04440 30-258) with A36V, A55D, A56E, K69E

DRB1_0101 = DRB1_0101 (Homo sapiens, UniProt P01903+P01911, A100R/D57E/F55L/F60I/F76Y/I96L/L162R/M171V/P40L/Q125E/R42F/V115G/Y59C); assay: Competitive MHC class II binding assay, DRB1_0101;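 also: competition against a radiolabeled probe peptide (0.1–1 nM) for purified HLA class II protein over 2–4 days, bound counts read after antibody capture, six competitor levels across 100,000-fold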
DQA10102-DQB10602 = assay: Competitive MHC class II binding assay, DQA10102-DQB10602; details: read-out: HLA-DQA10102-DQB10602; positive binding at cutoff 1000 nM
DRB1_0701 = DRB1_0701 (Homo sapiens, UniProt P01903+P01911, A100R/A102G/A103Q/D57E/D86V/E43K/F76Y/K127E/L162R/M171V/P40G/Q125H/Q99D/R33Q/R42Y/R54Q/S133A/S66F/T210M/V115G/Y107V/Y59L/Y89S); assay: Competitive MHC class II binding assay, DRB1_0701;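 also: displacement of a radiolabeled reference peptide from purified HLA class II protein, with complex-bound radioactivity counted after 2–4 days of incubation and six concentrations spanning a 100,000-fold range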
DRB1_0405 = DRB1_0405 (Homo sapiens, UniProt P01903+P01911, A100R/A169T/D86S/F76Y/I96L/K127E/L162R/M171V/N62H/P40V/Q125Y/R42H/S133A/S149N/S66Y/V115G/V209L/W38E); assay: Competitive MHC class II binding assay, DRB1_0405
DRB1_1201 = DRB1_1201 (Homo sapiens, UniProt P01903+P01911, A100R/A169T/D57E/D86V/F55L/H45Y/K41T/L162R/M171V/P40S/Q125H/Q178H/Q39Y/Q99D/R42G/S66L/T262R/V114A/V67L/W38E/Y59H/Y61H/Y89S); assay: Competitive MHC class II binding assay, DRB1_1201
DQA10501-DQB10301 = DQA10501-DQB10301 (Homo sapiens, UniProt P01909+P01920); assay: Competitive MHC class II binding assay, DQA10501-DQB10301
DRB5_0101 = DRB5_0101 (Homo sapiens, UniProt P01903+Q30154); assay: Competitive MHC class II binding assay, DRB5_0101
DRB1_1302 = DRB1_1302 (Homo sapiens, UniProt P01903+P01911, A100E/A169T/K41T/L162R/M171V/P40S/Q125H/Q178H/Q39Y/Q99D/R42S/S66N/T262R/V115G/W38E/Y61H); assay: Competitive MHC class II binding assay, DRB1_1302;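 also: purified HLA class II protein incubated two to four days with a radiolabeled reference binder and test peptide at six concentrations over a 100,000-fold range, complex-bound radioactivity counted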
DRB4_0101 = DRB4_0101 (Homo sapiens, UniProt P01903+P13762, G164S); assay: Competitive MHC class II binding assay, DRB4_0101
DRB1_1501 = DRB1_1501 (Homo sapiens, UniProt P01903+P01911); assay: Competitive MHC class II binding assay, DRB1_1501
DRB1_1101 = DRB1_1101 (Homo sapiens, UniProt P01903+P01911, A100R/A169T/A87E/I96F/K41T/L162R/M171V/P40S/Q125H/Q178H/Q39Y/Q99D/R42S/S66Y/T262R/V115G/W38E); assay: Competitive MHC class II binding assay, DRB1_1101
DRB1_0901 = DRB1_0901 (Homo sapiens, UniProt P01903+P01911, A100R/A103E/D57H/D86V/F55Y/F60I/F76Y/I96F/K127E/L162R/M171V/P40D/Q125H/Q99R/R33Q/R42F/S133A/S66N/T210M/V115G/W38K/Y107V/Y59G/Y89S); assay: Competitive MHC class II binding assay, DRB1_0901;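 also: displacement of a radiolabeled probe peptide from purified HLA class II protein, bound counts read after two to four days incubation, six concentrations spanning 100,000-fold, unlabeled probe as reference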
DRB3_0202 = DRB3_0202 (Homo sapiens, UniProt P01903+P79483, A212P/D57E/F66Y/L67A/R103Q/R218S/R40L/S89Y/T80R/V86D/Y55F/Y59H); assay: Competitive MHC class II binding assay, DRB3_0202
DQA10501-DQB10201 = DQA10501-DQB10201 (Homo sapiens, UniProt P01909+P01920, A45G/A70V/D89A/E106A/E77G/E98D/H199R/L107V/N214S/P84L/P87L/T103K/T109R/T172A/T60S/V78E/V99I/Y58L/Y62S/Y69I/Y79F); assay: Competitive MHC class II binding assay, DQA10501-DQB10201
DRB1_0802 = DRB1_0802 (Homo sapiens, UniProt P01903+P01911, A100R/A103L/A169T/F76Y/H45Y/I96F/K41T/L162R/M171V/P40S/Q125H/Q178H/Q39Y/Q99D/R218S/R42G/S66Y/V115G/W38E); assay: Competitive MHC class II binding assay, DRB1_0802
DRB3_0101 = DRB3_0101 (Homo sapiens, UniProt P01903+P79483); assay: Competitive MHC class II binding assay, DRB3_0101
DQA10301-DQB10302 = DQA10301-DQB10302 (Homo sapiens, UniProt P01909+P01920, A209T/A45G/C70Q/D89A/DUP78-78/E183D/E77G/F237L/G63E/H199R/I129T/K197E/L178F/L74F/L98V/Q57E/Q76R/S185I/S97I/T217I/T49S/V73L/Y58L); assay: Competitive MHC class II binding assay, DQA10301-DQB10302
DRB1_0401 = DRB1_0401 (Homo sapiens, UniProt P01903+P01911, A100K/A169T/F76Y/I96L/K127E/L162R/M171V/N62H/P40V/Q125Y/R42H/S133A/S149N/S66Y/V115G/V209L/W38E); assay: Competitive MHC class II binding assay, DRB1_0401
DQA10401-DQB10402 = assay: Competitive MHC class II binding assay, DQA10401-DQB10402
DQA10101-DQB10501 = DQA10101-DQB10501 (Homo sapiens, UniProt P01909+P01920, A157S/A45G/A70V/C70R/D89V/E106S/E118A/E183D/E77G/F83G/G63E/H151Q/H199R/H252R/H253Q/I129T/I235V/I88M/INS77G/K197Q/L107V/L117V/L119Y/L178F/L71W/L74F/L85Q/L91A/L98M/M46L/N214S/P87R/Q116E/Q256R/Q57E/Q76K/R102G/R240Q/R75S/R78G/S102Y/S185I/S41F/S97I/T103A/T109R/T121G/T122I/T172A/T86R/V148I/V68A/V73E/Y34C/Y58G/Y62H); assay: Competitive MHC class II binding assay, DQA10101-DQB10501; details: positive binding at cutoff 1000 nM; read-out: HLA-DQA10101-DQB10501
DPA10103-DPB10402 = target: T3, DPA10103-DPB10402 (Homo sapiens, UniProt P04440+P20036, A65V/A84D/A85E/L207M); assay: Competitive MHC class II binding assay, DPA10103-DPB10402
T3 sequence (P20036 29-260): T1 sequence (P20036 29-260)
T3 sequence (P04440 30-258 A65V/A84D/A85E): T1 sequence (P04440 30-258) with A36V, A55D, A56E

Row | Compound | IC50 (DPA10103-DPB10401) [nM] | IC50 (DPA10103-DPB10201) [nM] | IC50 (DRB1_0101) [nM] | IC50 (DRB1_0701) [nM] | IC50 (DRB1_0405) [nM] | IC50 (DQA10501-DQB10301) [nM] | IC50 (DRB1_1302) [nM] | IC50 (DRB4_0101) [nM] | IC50 (DRB1_0901) [nM] | IC50 (DRB3_0202) [nM] | IC50 (DQA10501-DQB10201) [nM] | other results
1 | CC[C@H](C)[C@H](NC(=O)[C@H](CCSC)NC(=O)[C@H](CCCNC(=N)N)NC(=O)[C@H](Cc1ccccc1)NC(=O)[C@H](CCCCN)NC(=O)[C@@H](NC(=O)[C@H](CCSC)NC(=O)[C@H](CC(N)=O)NC(=O)[C@H](Cc1ccc(O)cc1)NC(=O)[C@@H](NC(=O)[C@@H](N)CCC(=O)O)[C@@H](C)CC)C(C)C)C(=O)N[C@@H](C)C(=O)NCC(=O)N[C@@H](CCC(N)=O)C(=O)N[C@@H](CCC(=O)O)C(=O)O [pep-117] | < 1000 | < 1000 | – | – | – | – | – | – | – | – | – | –
2 | CC[C@H](C)[C@H](NC(=O)CNC(=O)[C@@H](N)CCCNC(=N)N)C(=O)N[C@@H](CCC(=O)O)C(=O)N[C@@H](Cc1ccc(O)cc1)C(=O)N[C@H](C(=O)N[C@@H](CCC(N)=O)C(=O)N[C@@H](Cc1c[nH]cn1)C(=O)N[C@@H](CC(N)=O)C(=O)NCC(=O)N[C@H](C(=O)N[C@H](C(=O)N[C@@H](CCC(N)=O)C(=O)N[C@@H](CCC(=O)O)C(=O)N[C@@H](CO)C(=O)N[C@@H](Cc1ccc(O)cc1)C(=O)N[C@@H](Cc1ccc(O)cc1)C(=O)N[C@@H](CCCNC(=N)N)C(=O)N[C@@H](Cc1ccc(O)cc1)C(=O)N[C@H](C(=O)N[C@@H](C)C(=O)N[C@@H](CCCNC(=N)N)C(=O)O)C(C)C)C(C)C)C(C)C)[C@@H](C)CC [pep-123] | < 1000 | < 1000 | < 1000 | < 1000 | < 1000 | < 1000 | < 1000 | < 1000 | < 1000 | < 1000 | < 1000 | IC50 (DQA10102-DQB10602): < 1000 nM; IC50 (DRB1_1201): < 1000 nM; IC50 (DRB5_0101): < 1000 nM; IC50 (DRB1_1501): < 1000 nM; IC50 (DRB1_1101): < 1000 nM; IC50 (DRB1_0802): < 1000 nM
3 | NGYGYFAANIDLMM [pep-011] | – | – | < 1000 | < 1000 | < 1000 | < 1000 | < 1000 | < 1000 | < 1000 | < 1000 | < 1000 | IC50 (DRB3_0101): < 1000 nM; binding to HLA Class II allele DRB3_0101 (DRB3_0101; as shown in Table 16a): binds to at least the same alleles as peptide 041; IC50 (DQA10301-DQB10302): < 1000 nM; IC50 (DRB1_0401): < 1000 nM; binding to HLA Class II allele DRB1_1302 (DRB1_1302; as shown in Table 16a): binds to at least the same alleles as peptide 041; binding to HLA Class II allele DQA10401-DQB10402 (DQA10401-DQB10402; as shown in Table 16a): binds to at least the same alleles as peptide 041; IC50 (DQA10401-DQB10402; read-out: HLA-DQA10401-DQB10402, positive binding at cutoff 1000 nM): < 1000 nM; IC50 (DQA10101-DQB10501): < 1000 nM; binding to HLA Class II allele DRB3_0202 (DRB3_0202; as shown in Table 16a): binds to at least the same alleles as peptide 041; IC50 (DPA10103-DPB10402): < 1000 nM; binding to HLA Class II allele DQA10501-DQB10201 (DQA10501-DQB10201; as shown in Table 16a): binds to at least the same alleles as peptide 041
